Test results as given in the supplement of paper PMC11451515.

System: P12-Ichikawa
Assay: cell viability relative to DMSO control; higher = less cytotoxic
Conditions: 48 h
Procedure, shortened: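 Three leukemia lines were tested: NOMO1 and SEM at 500 cells/well and P12-Ichikawa at 1000 cells/well. Each was adapted for at least four passages in each medium and seeded in 5 μl in 1536-well plates, and library compounds in DMSO were pin-dosed from 47 μM to 0.79 nM in 11 threefold steps. After 48 h at 37°C, CellTiter-Glo One luminescence was read. Viability is a percentage relative to DMSO wells on each plate, with cell-free wells as background.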

[1] = HPLM + 10% dialyzed FBS, 0.000781 µM
[2] = HPLM + 10% dialyzed FBS, 0.00234 µM
[3] = HPLM + 10% dialyzed FBS, 0.00702 µM
[4] = HPLM + 10% dialyzed FBS, 0.0211 µM
[5] = HPLM + 10% dialyzed FBS, 0.0632 µM
[6] = HPLM + 10% dialyzed FBS, 0.19 µM
[7] = HPLM + 10% dialyzed FBS, 0.569 µM
[8] = HPLM + 10% dialyzed FBS, 1.71 µM
[9] = HPLM + 10% dialyzed FBS, 5.12 µM
[10] = HPLM + 10% dialyzed FBS, 15.4 µM
[11] = HPLM + 10% dialyzed FBS, 46.1 µM
[12] = RPMI 5 mM glucose + 10% FBS, 0.000781 µM
[13] = RPMI 5 mM glucose + 10% FBS, 0.00234 µM
[14] = RPMI 5 mM glucose + 10% FBS, 0.00702 µM
[15] = RPMI 5 mM glucose + 10% FBS, 0.0211 µM
[16] = RPMI 5 mM glucose + 10% FBS, 0.0632 µM
[17] = RPMI 5 mM glucose + 10% FBS, 0.19 µM
[18] = RPMI 5 mM glucose + 10% FBS, 0.569 µM
[19] = RPMI 5 mM glucose + 10% FBS, 1.71 µM
[20] = RPMI 5 mM glucose + 10% FBS, 5.12 µM
[21] = RPMI 5 mM glucose + 10% FBS, 15.4 µM
[22] = RPMI 5 mM glucose + 10% FBS, 46.1 µM
[23] = RPMI 5 mM glucose + 10% dialyzed FBS, 0.000781 µM
[24] = RPMI 5 mM glucose + 10% dialyzed FBS, 0.00234 µM
[25] = RPMI 5 mM glucose + 10% dialyzed FBS, 0.00702 µM
[26] = RPMI 5 mM glucose + 10% dialyzed FBS, 0.0211 µM
[27] = RPMI 5 mM glucose + 10% dialyzed FBS, 0.0632 µM
[28] = RPMI 5 mM glucose + 10% dialyzed FBS, 0.19 µM
[29] = RPMI 5 mM glucose + 10% dialyzed FBS, 0.569 µM
[30] = RPMI 5 mM glucose + 10% dialyzed FBS, 1.71 µM
[31] = RPMI 5 mM glucose + 10% dialyzed FBS, 5.12 µM
[32] = RPMI 5 mM glucose + 10% dialyzed FBS, 15.4 µM
[33] = RPMI 5 mM glucose + 10% dialyzed FBS, 46.1 µM

Row | Compound | cell viability [1] [%] | cell viability [2] [%] | cell viability [3] [%] | cell viability [4] [%] | cell viability [5] [%] | cell viability [6] [%] | cell viability [7] [%] | cell viability [8] [%] | cell viability [9] [%] | cell viability [10] [%] | cell viability [11] [%] | cell viability [12] [%] | cell viability [13] [%] | cell viability [14] [%] | cell viability [15] [%] | cell viability [16] [%] | cell viability [17] [%] | cell viability [18] [%] | cell viability [19] [%] | cell viability [20] [%] | cell viability [21] [%] | cell viability [22] [%] | cell viability [23] [%] | cell viability [24] [%] | cell viability [25] [%] | cell viability [26] [%] | cell viability [27] [%] | cell viability [28] [%] | cell viability [29] [%] | cell viability [30] [%] | cell viability [31] [%] | cell viability [32] [%] | cell viability [33] [%]
1 | COc1cc(NCc2ccc3nc(N)nc(N)c3c2C)cc(OC)c1OC | 88.8 | 88.8 | 95.8 | 101 | 99 | 94.4 | 79.4 | 62.2 | 32.9 | 24.7 | 14.7 | 82.4 | 91.7 | 86.1 | 91.5 | 96.4 | 88.4 | 96.1 | 87.8 | 68.6 | 58.9 | 1.49 | 73.2 | 82.4 | 82.7 | 87.5 | 96.2 | 87.6 | 88.3 | 85.9 | 65.7 | 26.1 | 1.75
2 | C[C@@H]1[C@H]\2[C@H](O)[C@H]3[C@H](N(C)C)\C(=C(C(N)=O)/C(=O)[C@@]3(O)\C(=C2C(=O)C4=C(O)C=CC=C14)O)O | 114 | 122 | 125 | 127 | 129 | 126 | 131 | 129 | 127 | 126 | 113 |  |  |  |  |  |  |  |  |  |  |  |  |  |  |  |  |  |  |  |  |  | 
3 | CC(=O)N(C)C1(c2ccccc2)CCN(CCC[C@]2(c3ccc(Cl)c(Cl)c3)CCCN(C(=O)c3ccccc3)C2)CC1 | 115 | 114 | 115 | 116 | 114 | 108 | 91.1 | 54.9 | 45.1 | 33.9 | 7.84 | 110 | 110 | 110 | 107 | 114 | 119 | 111 | 88.4 | 55.8 | 41.1 | 12.1 | 110 | 107 | 110 | 112 | 117 | 108 | 99.8 | 79.9 | 38.9 | 18.5 | 11.2
4 | CNC(=O)c1ccc2c(c1)NC(=O)/C2=C(\Nc1cccc(CN(C)C)c1)c1ccccc1 | 92.9 | 97.2 | 98.5 | 99.8 | 100 | 101 | 98.9 | 89.1 | 35.8 | 87.6 | 0.763 | 87.3 | 98.2 | 97.3 | 105 | 102 | 101 | 103 | 92.5 | 36.5 | 83.5 | 1.21 | 86.4 | 95.6 | 108 | 101 | 102 | 101 | 103 | 97.5 | 35.6 | 81.8 | 1.03
5 | CN(C)c1nc(Cc2ccc(NC(=O)c3ccc(C(F)(F)F)cc3)cc2)nc(N(C)C)c1CC(=O)O | 106 | 100 | 107 | 104 | 105 | 103 | 99.5 | 102 | 103 | 98.2 | 90.3 | 106 | 109 | 99.5 | 105 | 109 | 103 | 103 | 108 | 100 | 103 | 98.5 | 95.7 | 96.7 | 99.6 | 105 | 94.7 | 96.9 | 99.3 | 96.8 | 95.1 | 93.8 | 85.2
6 | CC(C)(N)c1ccc(-c2nc3ccccc3nc2-c2ccccc2)cc1 | 110 | 114 | 108 | 65.8 | 23.2 | 10.3 | 7.18 | 5.6 | 5.46 | 4.51 | 4.37 | 96.3 | 120 | 109 | 111 | 84.4 | 18.8 | 10.2 | 6.88 | 6.89 | 4.41 | 3.11 | 108 | 117 | 111 | 114 | 68.8 | 22.3 | 13.9 | 8.23 | 7.24 | 7.26 | 4.8
7 | Nc1n[nH]c2nnc(-c3c(-c4ccccc4)nn4ccccc34)cc12 | 104 | 117 | 112 | 120 | 126 | 126 | 120 | 118 | 90 | 18.8 | 10.6 | 109 | 116 | 123 | 118 | 134 | 119 | 141 | 138 | 95.3 | 17.7 | 9.91 | 113 | 116 | 128 | 121 | 133 | 134 | 136 | 131 | 132 | 53.6 | 17.9
